Experimental data from patent US11446299B2, “Carbazole EHop-016 derivatives as anticancer and anti-migratory agents” (UNIVERSITY OF PUERTO RICO, priority 2017, dated 2022).
Read-outs that look alike come from different tables or passages of the source.

Columns and labels:
[1] = system: tumor; conditions: at ≥25 mg/kg Body Weight, mouse model; cited from earlier work
[2] = target: Cdc42 (Homo sapiens, UniProt P60953); conditions: cited from earlier work
[3] = system: PAK1; conditions: at 2 μM; cited from earlier work
[4] = system: MCF-7 cancer cells; assay: Sulforhodamine B (SRB) growth inhibition assay; assay type: cell-based; conditions: Homo sapiens, MCF7, 24 h treatment, mean of triplicate, SD <10%
Description: (§1) Various compounds were tested to evaluate the dose response curve for effect on MCF-7 cancer cells and MDA-MB-231 cancer cells. MCF-7 and MDA-MB-231 cells were cultured in 10% Minimum Essential Medium Eagle (MEME) supplemented with Earle's Balanced Salt Solution (EBSS), Non-essential Amino acids (NEAA), Sodium pyruvate, Pen/Strep, L-glutamine and Fetal Bovine Serum (FBS) at 37° C. in 5% CO2.
(§2) Sulforhodamine B (SRB) Assay: A stock solution of compounds was prepared at 50 mM in 100% DMSO. For cells preparation, a flask of 75 cm^2 or 25 cm^2 were used for 2.6×10^5 cells or 1.44×10^5 cells respectively with an 80-90% of confluence. Cells were washed with PBS and trypsinized. The concentration of cells was determined using a 1:2 dilutions with Trypan Blue and a hemocytometer. After cell count, the concentration was adjusted to have a 1.9×10^4 cells/well. Approximately […] of cells suspension, compounds, control positive and control negative were added in triplicates to a 96 well plate. Positive controls used were ellipticine, doxorubicin, and/or vincristine, and the negative control was DMSO 0.1%. All compounds at 50, 25, 12.5, 6.3, and 1.6 μM were incubated with cells at 37° C. for 24 hrs. For fixation, cold TCA 50% was used and incubated at 4° C. for 1 hr. Wells were washed and dried prior to tincture with 100 μL of SRB 0.4%. To remove excess of SRB, acetic acid was used. For analysis, TRIS-BASE Solution (pH=10.5) was used and shacked prior to reading using an ELISA reader at 510 nm and the software SoftMax Pro 4.8.
(§3) For each compound, 50% growth inhibition (GI50) was calculated from Sigmoidal dose-response curves (variable-slope) that were generated with data obtained from experiments carried out in triplicates (GI50 values were generated with GraphPad Prism V. 6.02, GraphPad Software, Inc.). The results are presented in FIGS. 4A-4B (MCF-7 cancer cells) and FIGS. 5A-5B (MDA-MB-231 cancer cells).

[5] = system: MDA-MB-231 breast cancer cell lines; assay: Cytotoxicity (IC50) of EHop-016 derivatives modified in building block C; assay type: cell-based; conditions: Homo sapiens, concentration at which 50% of the cell growth is inhibited
Description: (§4) An additional example of a compounds with modification in building block C was synthesized via a different procedure as represented in Scheme 2B (see FIG. 11B). The compounds that were synthesized were tested for their biological activity by determination of their cytotoxicity in MDA-MB-231 breast cancer cell lines as shown in Table 5. The cytotoxicity's are expressed as IC50, which indicates the concentration at which 50% of the cell growth is inhibited. Furthermore, the inhibition of cell migration was tested at a concentration of 0.2×IC50, or, when the IC50 was >50 μM at a concentration of 10 μM. For comparison, Table 5 also includes the Lipinski and drug-likeness parameters as calculated via the MolSoft platform.

[6] = mouse model; cited from earlier work
[7] = target: Rac1-Vav2 interaction (Homo sapiens, UniProt P63000); conditions: cited from earlier work
[8] = system: MDA-MB-231 breast cancer cells; assay: Wound healing assay (scratch method), cell migration; assay type: cell-based, human; conditions: for inhibition at 10 µM: read-out: anti-migratory activity (inhibition of migration); for inhibition of migration in words: at a concentration of 0.2×IC50
Description: The experimental data of anti-migratory activities for compounds 3a-d and 4a-f were obtained using MDA-MB-231 breast cancer cells. For the migration assay, a wound-healing assay (scratch-wound assay) was utilized in the presence of vehicle (0.02% DMSO) or compounds at […].
Prior to assays, cells were grown until 80-90% confluence was observed. A 75 cm2 flask was used for 2.6×10^5 cells/mL in 10 mL and for a 25 cm2 flask 1.44×10^5 cells/mL in 5 mL. The cells were washed with PBS to remove all traces of FBS. 2 mL was added for a 25 cm2 flasks or 4 mL for a 75 cm2 flasks trypsin, and incubated 5-10 min at 37° C. At the end of the incubation time, cells were re-suspended and counted with hemocytometer using 1:2 dilutions with Trypan blue. Subsequently, cell viability was calculated. In a 12 multiwell plate, the plastic pattern was used to draw a fine space with a fine marker on the bottom of the plate. Cells were seeded at 1.5-2.2×10^5 cells/mL in 1 mL and incubated for 24 h. Cells were then rinsed with PBS and incubated in starving media (0.5% FBS) overnight. All controls and drugs were tested in triplicate. The negative control for each drug was prepared according to the drug's DMSO concentration.
Drugs were diluted and the final concentration at each well […]. The wound was made using a sterile pipette tip of […]. Cells were then rinsed very gently with media without FBS and media with negative controls was added. After a 24 h incubation, the gap distance was evaluated using the software Lumera Infinity Analyze 6.4.0. Pictures were taken at 0, 8, 12 and 24 h using a 10× objective. The percentage of migration was calculated using the following formula: 100−[(X0/X0)]*100 for time 0 h measurements 100−[(X24/X0)]*100 for time 24 h measurements
The experimental data of anti-migratory activities for compounds 3a-d and 4a-f were obtained using MDA-MB-231 breast cancer cells, and results are summarized in Table 1. For the migration assay, we used a wound-healing assay (scratch-wound assay)^22 in the presence of vehicle (0.02% DMSO) or compounds at 10 μM (FIG. 6). […] However, compounds 3a, 3c, and 4a-f inhibited migration in the range of 1-9%.
as §4
Migration assays were performed via the Scratch Method as described previously.

[9] = system: MDA-MB-231 cancer cells; assay: Sulforhodamine B (SRB) growth inhibition assay; assay type: cell-based, human; conditions: Homo sapiens, MDA-MB-231; SRB assay, 24 h treatment, mean of triplicate, SD <10%
Description: as §1, §2, §3

[10] = target: Rac (Homo sapiens, UniProt P63000); conditions: cited from earlier work
[11] = system: SH-SY5Y neuroblastoma cells; assay: Growth inhibition, log dose-response; assay type: cell-based; conditions: Homo sapiens
From the text: FIG. 14 (A-B). Log dose-response curve for compound 8 in MCF-7 (FIG. 14A) and SH-SY5Y neuroblastoma (FIG. 14B) cells.

Chain of Cdc42 (P60953 whole entry, species assumed): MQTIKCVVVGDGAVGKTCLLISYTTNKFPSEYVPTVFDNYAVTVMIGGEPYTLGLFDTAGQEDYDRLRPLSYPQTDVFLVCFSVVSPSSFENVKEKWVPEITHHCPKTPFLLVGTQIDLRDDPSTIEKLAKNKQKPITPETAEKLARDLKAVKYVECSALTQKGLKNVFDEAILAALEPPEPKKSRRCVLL

For `CCn1c2ccccc2c2cc(Nc3ccnc(NCCCN4CCOCC4)n3)ccc21` (racemic) [EHop-016], the “tumor growth, metastasis and angiogenesis in words” value [1] is listed as “significantly reduced tumor growth, metastasis, and angiogenesis”, the “concentrations that inhibit Cdc42 activity” value [2] is listed as at least 10 µM and the inhibition of PAK1 [3] is listed as 60%. The GI50 [4] was 14 µM, the IC50 [5] was 15.7 µM and the clearance in words [6] was “cleared rapidly from the circulation”. The IC50 [7] was 1 µM, the activity at 1 µM ([8]; Homo sapiens, MDA-MB-231, 24 h) was 95.4% and the activity at 5 µM ([8]; Homo sapiens, MDA-MB-231, 24 h, at 5 μM) was 63.4%. The inhibition at 1 µM ([8]; Homo sapiens, MDA-MB-231, read-out: inhibition of migration, at 1.0 μM, scratch method) was 5%, the inhibition at 5 µM ([8]; Homo sapiens, MDA-MB-231, read-out: inhibition of migration, at 5.0 μM, scratch method) was 37% and the inhibition at 10 µM ([8]; Homo sapiens, MDA-MB-231) was 33%. The inhibition at 10 µM ([8]; Homo sapiens, at 10 μM, 24 h, MDA-MB-231) was 33%, the activity at 10 µM ([8]; Homo sapiens, percent relative migration at 10 μM after 24 h, relative to control, MDA-MB-231) was 67 ± 7.55% and the anti-migratory activity ([8]; at 5 pM as printed, MDA-MB-231) was 17%. For the same compound, the anti-migratory activity ([8]; at 5 μM, MDA-MB-231) was 17%, the GI50 [9] was 15 µM and the “activity relative to previously available Rac inhibitors” value [10] was 10-100 times. The IC50 ([10]; metastatic breast cancer cells) was 1 µM.
With `CCn1c2ccccc2c2cc(Nc3ccnc(NCC4CCCCN4)n3)ccc21` (centres unmarked) [Compound 34, N^4-(9-ethyl-9H-carbazol-3-yl)-N^2-(piperidin-2-ylmethyl)pyrimidine-2,4-diamine] the IC50 [5] was 1.97 µM and the activity at 0.39 µM ([8]; Homo sapiens, MDA-MB-231, 24 h, at 0.39 μM (0.2×IC50)) was 100%.
In the case of `CCN(CC)CCCC(C)Nc1nccc(Nc2ccc3c(c2)c2ccccc2n3CC)n1` (centres unmarked) [Compound 32, N^2-(5-(diethylamino)pentan-2-yl)-N^4-(9-ethyl-9H-carbazol-3-yl)pyrimidine-2,4-diamine], the IC50 [5] is reported as 9 µM and the activity at 1.8 µM ([8]; Homo sapiens, MDA-MB-231, 24 h, at 1.8 μM (0.2×IC50)) is reported as 99.9%.
With `CCn1c2ccccc2c2cc(Nc3ccnc(Nc4c(OC)cc(OC)cc4OC)n3)ccc21` [Compound 40, N^4-(9-ethyl-9H-carbazol-3-yl)-N^2-(2,4,6-trimethoxyphenyl) pyrimidine-2,4-diamine] the IC50 [5] was 7.7 µM, the activity at 1.54 µM ([8]; Homo sapiens, MDA-MB-231, 24 h, at 1.54 μM (0.2×IC50)) was 80.2% and the “inhibition of migration in words” value [8] was “inhibition of migration”.
For `CCn1c2ccccc2c2cc(Nc3ccnc(NCCOC)n3)ccc21` [Compound 38, N^4-(9-ethyl-9H-carbazol-3-yl)-N^2-(2-methoxyethyl)pyrimidine-2,4-diamine], the IC50 [5] was over 50 µM and the activity at 2.8 µM ([8]; Homo sapiens, MDA-MB-231, 24 h, at 2.8 μM) was 96.7%.
In the case of `CCn1c2ccccc2c2cc(Nc3cc(C)nc(NCCCN4CCOCC4)n3)ccc21` [Compound 8, N^4-(9-Ethyl-9H-carbazol-3-yl)-6-methyl-N^2-(3-morpholin-4-yl-propyl)-pyrimidine-2,4-diamine], the GI50 [11] is reported as 6 µM and the GI50 [4] is reported as 9.5 µM.
In the case of `CCn1c2ccccc2c2cc(Nc3ccnc(NC(=O)Nc4cc(Cl)c(OC)cc4OC)n3)ccc21` [Compound 41, 1-(5-chloro-2,4-dimethoxyphenyl)-3-(4-((9-ethyl-9H-carbazol-3-yl)amino)pyrimidin-2-yl)urea], the IC50 [5] is reported as 10.9 µM, the activity at 1 µM ([8]; Homo sapiens, MDA-MB-231, 24 h) is reported as 77.3% and the “inhibition of migration in words” value [8] is reported as “inhibition of migration”.
With `CCn1c2ccccc2c2cc(Nc3ccnc(NCCCn4ccnc4)n3)ccc21` [Compound 33, N^2-(3-(1H-imidazol-1-yl)propyl)-N^4-(9-ethyl-9H-carbazol-3-yl)pyrimidine-2,4-diamine] the IC50 [5] was 7.57 µM and the activity at 1.51 µM ([8]; Homo sapiens, MDA-MB-231, 24 h, at 1.51 μM (0.2×IC50)) was 100%.
With `CCn1c2ccccc2c2cc(Nc3ccnc(NCc4ccc(OC)cc4OC)n3)ccc21` [Compound 39, N^2-(2,4-dimethoxybenzyl)-N^4-(9-ethyl-9H-carbazol-3-yl) pyrimidine-2,4-diamine] the IC50 [5] was over 50 µM and the activity at 0.92 µM ([8]; Homo sapiens, MDA-MB-231, 24 h, at 0.92 μM) was 103%.
In the case of `CCn1c2ccccc2c2cc(Nc3ccnc(NCCC4CCCN4C)n3)ccc21` (centres unmarked) [Compound 35, N^4-(9-ethyl-9H-carbazol-3-yl)-N^2-(2-(1-methylpyrrolidin-2-yl)ethyl)pyrimidine-2,4-diamine], the IC50 [5] is reported as 19.1 µM, the activity at 3.8 µM ([8]; Homo sapiens, MDA-MB-231, 24 h, at 3.8 μM (0.2×IC50)) is reported as 89.1% and the “inhibition of migration in words” value [8] is reported as “inhibition of migration”.
In the case of `CCn1c2ccccc2c2cc(Nc3ccnc(NCCOCCO)n3)ccc21` [Compound 37, 2-(2-((4-((9-ethyl-9H-carbazol-3-yl)amino)pyrimidin-2-yl)amino)ethoxy)ethanol], the IC50 [5] is reported as over 50 µM and the activity at 3.07 µM ([8]; Homo sapiens, MDA-MB-231, 24 h, at 3.07 μM) is reported as 100%.
`CCn1c2ccccc2c2cc(Nc3ccnc(NCCO)n3)ccc21` [Compound 36, 2-((4-((9-ethyl-9H-carbazol-3-yl)amino)pyrimidin-2-yl)amino) ethanol] gave an IC50 [5] of 14.6 µM and an activity at 2.92 µM ([8]; Homo sapiens, MDA-MB-231, 24 h, at 2.92 μM (0.2×IC50)) of 94.8%.
